Experimental data published in US20240287048A1, “SUBSTITUTED ACYL SULFONAMIDES FOR TREATING CANCER” (The Broad Institute, Inc., priority 2020, published 2024).

Assays:
MDA-MB-436 cells = assay: Proliferation assay in MDA-MB-436 cells (negative control cell line); format: cell-based; conditions: Homo sapiens, 144 h, Alamar Blue, read-out: MDA-MB-436 proliferation assay, EC50[M] (arithmetic mean)
Text: (§1) For compound characterization cell survival assays were routinely run in two cell lines. ZR-75-1 is a breast carcinoma cell line containing a focal KAT6A amplification and high KAT6A protein expression. Proliferation of this cell line is inhibited upon treatment with KAT6A inhibitors. As a negative control cell line MDA-MB-436 were used. These cells carry a […] deletion of the KAT6A gene, have a low KAT6A protein expression and are not growth inhibited upon treatment with KAT6A inhibitors.
(§2) For measurements cell lines were plated at the below indicated concentration per […] in 96-well plates in a humidified incubator at 37° C. and 5% CO2.
(§3) ZR-75-1 (ATCC, CRL-1500; breast carcinoma); 3000 cells per well; culture medium: RPMI 1640 (Biochrom #FG 1215) medium containing 2.5% FBS (Biochrom #S0615). LCLC-97TM1 (DSMZ, ACC 388; large cell lung carcinoma); 6000 cells per well; culture medium: RPMI 1640 (Biochrom #FG 1215) medium containing 2.5% FBS (Biochrom #S0615). MDA-MB-436 (CLS, 300278; breast adenocarcinoma); 3000 cells per well; culture medium: DMEM/Ham's F12 (Biochrom #FG 4815) medium containing 2.5% FBS (Biochrom #S0615).
(§4) Each sample was prepared as triplicate and rim wells were excluded. Plates were incubated at 37° C. and 5% CO2 for 144 h. Cell viability was measured by adding 10 μL of Alamar Blue Reagent (Invitrogen #DAL 1100) and plates were incubated for 2 h at 37° C. and 5% CO2. Fluorescence was measured at 590 nm wavelength with a Tecan Spark or Victor X3 MTP-Reader (PerkinElmer).

[1] = test system: ESR1 transcription in MVLN cells; assay: Repression of ESR1 transcription, MVLN luciferase reporter assay; format: cell-based; conditions: Homo sapiens, luciferase signal after 24 h, read-out: MVLN reporter assay, IC50[M] (arithmetic mean)
In short: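 MVLN cells stably carry an ER-responsive vitellogenin A2 element driving luciferase. After 24 h of compound treatment, luciferase was read in lysate as the measure of ERα transcription. Alamar Blue fluorescence (530/590 nm, 2 h) was read first to control for cell loss; samples were run in duplicate.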

KAT6B = target: T1, KAT6B (Homo sapiens, UniProt Q8WYB5); assay: Kat6b activity assay (TR-FRET, acetylation of biotinylated histone H4 peptide); format: biochemical; conditions: recombinant human GST-tagged Kat6b (431-end), 30 mins at 22° C., read-out: KAT6B activity assay IC50 [mol/l] (arithmetic mean)
T1 construct: fused on or other part: N-terminal GST tag
T1 sequence (Q8WYB5 723-2073 limits assumed): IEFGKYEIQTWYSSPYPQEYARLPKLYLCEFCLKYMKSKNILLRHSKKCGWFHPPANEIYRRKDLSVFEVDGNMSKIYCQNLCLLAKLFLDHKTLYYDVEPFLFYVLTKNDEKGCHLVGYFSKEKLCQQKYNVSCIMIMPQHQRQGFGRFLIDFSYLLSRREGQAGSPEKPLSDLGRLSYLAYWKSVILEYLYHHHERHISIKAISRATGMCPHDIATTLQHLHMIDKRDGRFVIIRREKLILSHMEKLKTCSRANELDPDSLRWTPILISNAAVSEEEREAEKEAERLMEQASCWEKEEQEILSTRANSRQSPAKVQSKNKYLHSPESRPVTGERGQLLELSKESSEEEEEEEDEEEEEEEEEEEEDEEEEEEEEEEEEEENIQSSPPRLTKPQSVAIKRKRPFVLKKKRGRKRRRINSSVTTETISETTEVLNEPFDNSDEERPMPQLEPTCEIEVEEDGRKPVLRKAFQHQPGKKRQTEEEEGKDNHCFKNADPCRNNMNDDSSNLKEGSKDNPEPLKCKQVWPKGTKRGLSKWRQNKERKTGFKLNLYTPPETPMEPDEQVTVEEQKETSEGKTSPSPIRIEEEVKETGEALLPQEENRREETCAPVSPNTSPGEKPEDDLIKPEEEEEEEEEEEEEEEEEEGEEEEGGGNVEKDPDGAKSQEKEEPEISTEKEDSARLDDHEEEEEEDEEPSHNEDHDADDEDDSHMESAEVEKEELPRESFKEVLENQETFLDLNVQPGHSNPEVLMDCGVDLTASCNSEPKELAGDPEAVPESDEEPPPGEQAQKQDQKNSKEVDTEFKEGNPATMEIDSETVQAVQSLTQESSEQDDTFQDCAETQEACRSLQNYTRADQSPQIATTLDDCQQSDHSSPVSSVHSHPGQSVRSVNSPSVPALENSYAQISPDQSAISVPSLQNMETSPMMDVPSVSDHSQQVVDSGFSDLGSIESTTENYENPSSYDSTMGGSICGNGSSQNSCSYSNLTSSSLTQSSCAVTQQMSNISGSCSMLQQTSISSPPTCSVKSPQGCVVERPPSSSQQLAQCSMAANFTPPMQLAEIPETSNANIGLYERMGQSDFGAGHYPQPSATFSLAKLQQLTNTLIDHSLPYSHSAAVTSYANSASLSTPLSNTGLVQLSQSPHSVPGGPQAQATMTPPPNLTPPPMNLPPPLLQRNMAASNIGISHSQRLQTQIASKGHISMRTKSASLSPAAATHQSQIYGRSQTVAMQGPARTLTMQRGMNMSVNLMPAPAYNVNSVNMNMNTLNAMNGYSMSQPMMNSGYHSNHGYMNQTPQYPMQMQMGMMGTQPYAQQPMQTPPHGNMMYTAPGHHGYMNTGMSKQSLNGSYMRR
Text: Kat6b inhibitory activities of the compounds described in the present invention were quantified using a Fluorescence Resonance Energy Transfer (TR-FRET) assay which measures acetylation of a synthetic, biotinylated Histone-H4-derived peptide by the enzyme.
Recombinant human GST-tagged Kat6b protein (431-end, N-terminal GST-tag), purified from Baculovirus-infected insect cells (Sf9), was purchased from SignalChem (#K315-381BG). Histone H4 peptide (amino acids 1-24, […]-VLRD-K(Btn)-amide), which was used as substrate, was synthesized by Biosyntan GmbH, Berlin, Germany. Acetyl Coenzyme A was purchased from Sigma-Aldrich (#A-2056).
Kat6b was incubated for 30 mins at 22° C. in the presence of different concentrations of test substances (0 μM, and within the range 0.01-20 μM) in assay buffer [25 mM Tris/HCl pH 8, 1 mM EGTA, 2.5 mM Glutathion, 0.02% Chicken Albumin, 0.05% Pluronic F127, 25 mM NaCl, 500 nM H4 peptide and 600 nM Acetyl Coenzyme A].
The reaction was stopped by addition of Detection Solution (25 mM HEPES pH 7.5, 0.1% BSA, 22 nM SAXL665 (Cisbio #610SAXLE), 100 μM Anacardic Acid (Enzo #ALX-270-381), 1 nM Anti-Histone H4 (ACETYL K8) Antibody (ABCAM #AB15823), 0.5 nM Anti-Rabbit IgG Eu (Perkin Elmer #AD0083).
The fluorescence emission at 620 nm and 665 nm after excitation at 330-350 nm was measured in a TR-FRET measuring instrument, for instance a Rubystar or a Pherastar (both from BMG Lab Technologies, Offenburg, Germany) or a Viewlux (Perkin-Elmer). The ratio of the emission at 665 nm and at […] was used as indicator of the amount of acetylated peptide.
The resulting data (ratio) were normalized, taking 0% inhibition as the mean value of control measurements where all reagents were included. In this case 50 nl DMSO were used instead of compounds. […] IC50 values were determined by regression analysis based on a 4 parameter equation (minimum, maximum, ICM, Hill; Y=Max+(Min−Max)/(1+(X/ICso) Hill) using the Screener Software (Genedata).

ZR-75-1 cells = assay: Proliferation assay in ZR-75-1 cells; format: cell-based; conditions: Homo sapiens, 144 h, Alamar Blue, read-out: ZR75-1 proliferation assay, EC50[M] (arithmetic mean)
Text: as §1, §2, §3, §4

KAT6A = target: T2, KAT6A (Homo sapiens, UniProt Q92794); assay: Kat6a activity assay (TR-FRET, acetylation of biotinylated histone H4 peptide); format: biochemical; conditions: recombinant human His-tagged Kat6a (amino acids 194-810), 60 mins at 22° C., read-out: KAT6A-DPF/HAT domain IC50 [mol/l] (arithmetic mean)
T2 construct: Recombinant human His-tagged Kat6a protein (amino acids 194-810); His; made in house; host or cells: Baculovirus-infected Sf9 insect cells
T2 sequence (Q92794 194-810): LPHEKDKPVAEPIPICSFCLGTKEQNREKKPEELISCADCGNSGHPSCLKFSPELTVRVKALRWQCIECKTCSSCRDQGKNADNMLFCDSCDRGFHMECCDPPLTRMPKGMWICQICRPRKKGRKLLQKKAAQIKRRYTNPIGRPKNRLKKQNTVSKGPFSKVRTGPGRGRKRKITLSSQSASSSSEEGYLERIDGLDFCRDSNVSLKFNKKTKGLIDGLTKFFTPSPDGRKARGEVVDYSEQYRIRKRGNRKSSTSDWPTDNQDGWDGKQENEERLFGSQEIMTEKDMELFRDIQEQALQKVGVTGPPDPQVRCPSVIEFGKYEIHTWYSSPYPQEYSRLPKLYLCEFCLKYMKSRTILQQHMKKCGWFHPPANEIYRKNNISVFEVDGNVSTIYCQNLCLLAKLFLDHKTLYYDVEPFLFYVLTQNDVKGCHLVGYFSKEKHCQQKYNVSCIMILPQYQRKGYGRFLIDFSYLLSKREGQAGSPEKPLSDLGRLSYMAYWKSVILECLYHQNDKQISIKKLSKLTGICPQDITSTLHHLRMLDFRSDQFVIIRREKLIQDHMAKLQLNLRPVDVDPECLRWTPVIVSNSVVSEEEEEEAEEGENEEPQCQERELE
In short: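 His-tagged human Kat6a (aa 194-810, Sf9-expressed) with compound (0.01-20 μM) for 60 min at 22° C., pH 8 Tris buffer, 220 nM biotinylated H4 peptide (aa 1-24) and 600 nM acetyl-CoA. Acetyl-K8 detected by Eu-antibody/SA-XL665 TR-FRET (665/620 nm ratio); IC50 from 4-parameter fit.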

Row | SMILES | EC50 (MDA-MB-436 cells) [M] | IC50 [1] [M] | IC50 (KAT6B) [µM] | IC50 (KAT6A) [µM] | EC50 (ZR-75-1 cells) [M]
1 | COc1cc(C)cc2oc(C(=O)NS(=O)(=O)c3ccccc3-c3ccccc3)cc12 [Example 10, N-([1,1′-biphenyl]-2-sulfonyl)-4-methoxy-6-methyl-1-benzofuran-2-carboxamide] | > 2e-05 | 1e-05 | 1.12 | 0.933 | 1.39e-05
2 | CCC(C)c1ccc2cc(C(=O)NS(=O)(=O)c3ccccc3-c3ccccc3)oc2c1 (stereo not drawn) [Example 27, N-([1,1′-biphenyl]-2-sulfonyl)-6-(butan-2-yl)-1-benzofuran-2-carboxamide] | > 2e-05 | > 2e-05 | 9.21 | 2.03 | > 2e-05
3 | CC(C)c1ccc2cc(C(=O)NS(=O)(=O)c3ccccc3)oc2c1 [Example 56, N-(Benzenesulfonyl)-6-(propan-2-yl)-1-benzofuran-2-carboxamide] | > 2e-05 | 1.52e-05 | 3.94 | 1.56 | > 2e-05

More lines, main results first:

Row | EC50 (MDA-MB-436 cells) [M] | IC50 [1] [M] | IC50 (KAT6B) [µM] | IC50 (KAT6A) [µM] | SMILES | EC50 (ZR-75-1 cells) [M]
4 | > 2e-05 | 5.55e-06 | 0.245 | 0.128 | Cc1cc(C)c2cc(C(=O)NS(=O)(=O)c3ccccc3-c3ccccc3C)oc2c1 [Example 6, 4,6-Dimethyl-N-(2′-methyl[1,1′-biphenyl]-2-sulfonyl)-1-benzofuran-2-carboxamide] | > 2e-05
5 | > 2e-05 | 2.5e-06 | 0.22 | 0.0905 | Cc1cc(C)c2cc(C(=O)NS(=O)(=O)c3ccccc3-c3ccccc3)oc2c1 [Example 9, N-([1,1′-biphenyl]-2-sulfonyl)-4,6-dimethyl-1-benzofuran-2-carboxamide] | 1.81e-05
6 | 1.42e-05 | 5.85e-06 | 0.299 | 0.0635 | Cc1cc(C)c2cc(C(=O)NS(=O)(=O)c3ccccc3-c3cccc(Cl)c3)oc2c1 [Example 11, N-(3′-chloro[1,1′-biphenyl]-2-sulfonyl)-4,6-dimethyl-1-benzofuran-2-carboxamide] | 1.17e-05
